Source: ChEMBL document CHEMBL3046362, “Synthesis, antioxidant evaluation, and quantitative structureactivity relationship studies of chalcones” (Med Chem Res, 2011)
The source made the active and inactive calls. The rule behind the calls is not given here.

Legend:
Type in all cases: functional
[1] = system: Radical scavenging activity; assay: Antioxidant activity assessed as DPPH radical scavenging activity at 50 ug/ml after 20 min
[2] = Antioxidant activity assessed as reducing power of potassium ferricyanide at 50 ug/ml after 20 min by spectrophotometry; set-up: scale not given: the % may be the effect or the level left
[3] = Antioxidant activity assessed as hydrogen peroxide radical scavenging activity at 50 ug/ml after 10 min by spectrophotometry
[4] = Antioxidant activity assessed as superoxide radical scavenging activity at 50 ug/ml after 10 min by NBT reduction assay
[5] = system: Radical scavenging activity; assay: Antioxidant activity assessed as DPPH radical scavenging activity at 100 to 250 ug/ml by EPR spectroscopy

Compound | Activity [1] | Activity [2] | Activity [3] | Activity [4] | Activity [5]
COc1ccc(/C=C/C(=O)c2ccccc2)cc1 | 5.34% | 21.2% | 12.3% | 21.3% | 
COc1ccc(/C=C/C(=O)c2cccc([N+](=O)[O-])c2)cc1OC | 15.4% | 43.5% | 35.9% | 53.4% | 
CSc1ccc(/C=C/C(=O)c2cccc([N+](=O)[O-])c2)cc1 | 15.3% | 27.2% | 46.4% | 39.7% | 
COc1ccc(/C=C/C(=O)c2ccc(Cl)cc2Cl)cc1OC | 15.7% | 33.8% | 23.8% | 32.6% | 
CSc1ccc(/C=C/C(=O)c2ccc(Cl)cc2Cl)cc1 | 4.07% | 10.1% | 17.4% | 30.9% | 
CSc1ccc(/C=C/C(=O)c2cccc(O)c2)cc1 | 21.2% | 51.6% | 28.7% | 53.3% | 
CSc1ccc(/C=C/C(=O)c2ccc([N+](=O)[O-])cc2)cc1 | 15.9% | 3.17% | 4.61% | 17.4% | 
COc1ccc(/C=C/C(=O)c2cccc([N+](=O)[O-])c2)c(OC)c1 | 7.9% | 26.5% | 5.91% | 23.1% | 
COc1ccccc1/C=C/C(=O)c1ccc([N+](=O)[O-])cc1 | 7% | 32.8% | 61.3% | 34.5% | 
COc1ccccc1/C=C/C(=O)c1ccccc1 | 0.98% | 21.8% | 4.54% | 18.6% | 
CSc1ccc(/C=C/C(=O)c2ccc(O)cc2)cc1 | 28.9% | 46% | 23.8% | 52.6% | 
COc1ccc(/C=C/C(=O)c2ccc(C)cc2)cc1 | 1.3% | 23.1% | 4.54% | 15.4% | 
CSc1ccc(/C=C/C(=O)c2ccccc2O)cc1 | 15.4% | 46.7% | 33.3% | 50.2% | 
CN(C)c1ccc(/C=C/C(=O)c2ccccc2)cc1 | 8.08% | 9.52% | 12.1% | 13.8% | 
CSc1ccc(/C=C/C(=O)c2ccc(C)cc2)cc1 | 3.16% | 23.8% | 31.7% | 23.1% | 
COc1cc(/C=C/C(=O)c2ccccc2)cc(OC)c1OC | 15.6% | 40.6% | 22.7% | 28.9% | 
CSc1ccc(/C=C/C(=O)c2ccccc2)cc1 | 10.2% | 19.8% | 4.26% | 27.4% | 
O=C(/C=C/c1ccccc1)c1ccccc1 | 18.6% | 42.4% | 25.4% | 32.6% | 
COc1ccccc1/C=C/C(=O)c1cccc([N+](=O)[O-])c1 | 6.93% | 22.4% | 24.3% | 5.39% | 
COc1ccc(/C=C/C(=O)c2cccc(O)c2)cc1 | 35.7% | 37.5% | 42.8% | 62% | Active
CSc1ccc(/C=C/C(=O)c2ccc(Cl)cc2)cc1 | 23.2% | 30.9% | 43.5% | 41.4% | 
CSc1ccc(/C=C/C(=O)c2ccc(Br)cc2)cc1 | 18% | 18.8% | 49.7% | 18% | 
CN(C)c1ccc(/C=C/C(=O)c2ccc(Cl)cc2Cl)cc1 | 12.9% | 22% | 32.6% | 10.9% | 
CN(C)c1ccc(/C=C/C(=O)c2cccc([N+](=O)[O-])c2)cc1 | 18.6% | 28.6% | 17.4% | 39% | 
O=C1O[C@H]([C@@H](O)CO)C(O)=C1O | 28% | 22.6% | 78.3% | 82.9% | 
COc1ccc(C(=O)/C=C/c2ccc(SC)cc2)cc1 | 2.64% | 24.3% | 29.5% | 17.8% | 
Cc1cc(C(C)(C)C)c(O)c(C(C)(C)C)c1 | 26.4% | 56.1% | 42.6% | 79.1% | 
